# Test results as given in US20210038587A1, “METHODS AND COMPOSITIONS FOR TREATING NON-ERK MAPK PATHWAY INHIBITOR-RESISTANT CANCERS” (BIOMED VALLEY DISCOVERIES, INC., priority 2013, published 2021).
# Assays:
# [1] = test system: Colo205; assay: Reverse Phase Protein Analysis (RPPA); type: cell-based, human; details: % change from DMSO (matched cell line)
# [2] = test system: A375, MIAPaCa-2, HCT116, Colo205, HT-29, and AN3Ca cells; assay: Reverse Phase Protein Analysis (RPPA), all six cell lines; type: cell-based; details: 10 μM, 6 hours
# Description: Control wells were treated with DMSO at 0.1% (v/v) for 6 hours prior to cell lysate generation. Samples were then analyzed using reverse-phase protein microarray technology (Theranostics Health).
# Cell lines with common alterations in BRAF and RAS were assayed: BRAF^V600E mutant lines A375, Colo205, and HT29; KRAS^G12C-mutant cell line MIAPACa-2; KRAS^G13D-mutant cell line HCT116; and AN3Ca with atypical HRAS^F82L mutation. Changes in protein levels are shown as a percentage change from dimethyl sulfoxide (DMSO)-treated parental control (FIG. 32A and Table 23).
# [3] = test system: MIAPaCa-2; assay: Reverse Phase Protein Analysis (RPPA); type: cell-based; details: MIAPaca2; % change from DMSO (matched cell line)
compound,measurement,setting,value
Cc1cnc(Nc2ccc(F)cc2Cl)nc1-c1c[nH]c(C(=O)N[C@H](CO)c2cccc(Cl)c2)c1 [Vx-11e],Avg (4ebp1 T70),[1],−43.71%
same,Avg (Akt S473),[1],−10.96%
same,Avg (Akt),[1],−12.51%
same,Avg (Bad S136),[1],−1.01%
same,Avg (Bad S155),[1],−9.72%
same,Avg (Bak),[1],−2.79%
same,Avg (Bax),[1],−9.16%
same,Avg (Bcl 2),[1],−14.09%
same,Avg (Bcl2 S70),[1],−20.82%
same,Avg (Bcl 2 T56),[1],−12.02%
same,Avg (Bim),[1],34.1%
same,Avg (CREB S133),[1],−10.64%
same,Avg (Caspase 3 CL D175),[1],−2.67%
same,Avg (Caspase 7 Cl D198),[1],0.03%
same,Avg (Chk1),[1],−9.16%
same,Avg (Chk1 S345),[1],13.12%
same,Avg (Cyclin D1),[1],−39.79%
same,Avg (ERK 1 2),[1],−12.32%
same,Avg (ERK 1 2 T202 Y204),[1],98.48%
same,Avg (MAK1 S360),[1],6.22%
same,Avg (Mcl1),[1],−10.64%
same,Avg (Raptor S792),[1],0.2%
same,Avg (Raptor),[1],−0.05%
same,Avg (Rictor),[1],1.65%
same,Avg (Stat1),[1],−6.1%
same,Avg (Stat3),[1],−7.96%
same,Avg (bad S112),[1],−30.28%
same,Avg (c Fos),[1],−19.34%
same,Avg (c Myc),[1],−7.42%
same,Avg (mTOR S2448),[1],−8.52%
same,Avg (mTOR S2481),[1],−9.43%
same,Avg (mTOR),[1],3.62%
same,Avg (p70 S6 Kinase),[1],−3.42%
same,Avg (p90 RSK S380),[1],−58.6%
same,Avg(S6 Ribo Prot S235 236),[1],−93.04%
same,Avg(S6 Ribo Prot S240 244),[1],−94.89%
same,Avg(Tuberin TSC2 Y1571),[1],−9.45%
same,Avg(p70 S6 Kinase S371 S394),[1],−13.64%
same,Avg(p70 S6 Kinase T389 T412),[1],−28%
same,"pERK1/2 (ERK1/2-T202, -Y204)",[2],markedly increased pERK1/2
same,Avg (4ebp1 T70),[3],−15.72%
same,Avg (Akt S473),[3],0.48%
same,Avg (Akt),[3],−0.15%
same,Avg (Bad S136),[3],0.36%
same,Avg (Bad S155),[3],7.38%
same,Avg (Bak),[3],−1.93%
same,Avg (Bax),[3],4.33%
same,Avg (Bcl 2),[3],−2.3%
same,Avg (Bcl2 S70),[3],−7.83%
same,Avg (Bcl 2 T56),[3],−9.86%
same,Avg (Bim),[3],2.1%
same,Avg (CREB S133),[3],−13.28%
same,Avg (Caspase 3 CL D175),[3],6.17%
same,Avg (Caspase 7 Cl D198),[3],−0.32%
same,Avg (Chk1),[3],−1.8%
same,Avg (Chk1 S345),[3],2.09%
same,Avg (Cyclin D1),[3],−33.96%
same,Avg (ERK 1 2),[3],−14.85%
same,Avg (ERK 1 2 T202 Y204),[3],729.27%
same,Avg (MAK1 S360),[3],−0.87%
same,Avg (Mcl1),[3],−6.58%
same,Avg (Raptor S792),[3],−3.74%
same,Avg (Raptor),[3],5.4%
same,Avg (Rictor),[3],−13.24%
same,Avg (Stat1),[3],−1.64%
same,Avg (Stat3),[3],0.61%
same,Avg (bad S112),[3],−20.85%
same,Avg (c Fos),[3],−4.43%
same,Avg (c Myc),[3],−5.94%
same,Avg (mTOR S2448),[3],−5.38%
same,Avg (mTOR S2481),[3],−3.12%
same,Avg (mTOR),[3],−1.58%
same,Avg (p70 S6 Kinase),[3],−9.27%
same,Avg (p90 RSK S380),[3],−39.91%
same,Avg(S6 Ribo Prot S235 236),[3],−63.36%
same,Avg(S6 Ribo Prot S240 244),[3],−74.82%
same,Avg(Tuberin TSC2 Y1571),[3],−0.01%
same,Avg(p70 S6 Kinase S371 S394),[3],−30.35%
same,Avg(p70 S6 Kinase T389 T412),[3],−30.66%
Cn1nccc1Nc1nccc(-c2ccn([C@H](CO)c3ccc(Cl)c(F)c3)c(=O)c2)n1 [GDC-0994],Avg (4ebp1 T70),[1],−36.69%
same,Avg (Akt S473),[1],4.45%
same,Avg (Akt),[1],−11.83%
same,Avg (Bad S136),[1],4%
same,Avg (Bad S155),[1],−9.11%
same,Avg (Bak),[1],6.58%
same,Avg (Bax),[1],8.2%
same,Avg (Bcl 2),[1],17.95%
same,Avg (Bcl2 S70),[1],−9%
same,Avg (Bcl 2 T56),[1],−4.6%
same,Avg (Bim),[1],20.59%
same,Avg (CREB S133),[1],−11.85%
same,Avg (Caspase 3 CL D175),[1],23.06%
same,Avg (Caspase 7 Cl D198),[1],1.37%
same,Avg (Chk1),[1],5.06%
same,Avg (Chk1 S345),[1],6.08%
same,Avg (Cyclin D1),[1],−28.02%
same,Avg (ERK 1 2),[1],−3.33%
same,Avg (ERK 1 2 T202 Y204),[1],20.01%
same,Avg (MAK1 S360),[1],0.82%
same,Avg (Mcl1),[1],2.5%
same,Avg (Raptor S792),[1],−9.04%
same,Avg (Raptor),[1],−5.48%
same,Avg (Rictor),[1],−5.04%
same,Avg (Stat1),[1],7.26%
same,Avg (Stat3),[1],−0.86%
same,Avg (bad S112),[1],−6.12%
same,Avg (c Fos),[1],−21.33%
same,Avg (c Myc),[1],−6.22%
same,Avg (mTOR S2448),[1],−7.36%
same,Avg (mTOR S2481),[1],0.96%
same,Avg (mTOR),[1],3.39%
same,Avg (p70 S6 Kinase),[1],5.83%
same,Avg (p90 RSK S380),[1],−57.5%
same,Avg(S6 Ribo Prot S235 236),[1],−91.19%
same,Avg(S6 Ribo Prot S240 244),[1],−91.59%
same,Avg(Tuberin TSC2 Y1571),[1],0.66%
same,Avg(p70 S6 Kinase S371 S394),[1],−13.02%
same,Avg(p70 S6 Kinase T389 T412),[1],−32.2%
same,"pERK1/2 (ERK1/2-T202, -Y204)",[2],markedly increased pERK1/2
same,survival marker pBAD,[2],only modest inhibition of pBAD
same,Avg (4ebp1 T70),[3],−34.01%
same,Avg (Akt S473),[3],2.24%
same,Avg (Akt),[3],4.33%
same,Avg (Bad S136),[3],2.25%
same,Avg (Bad S155),[3],8.18%
same,Avg (Bak),[3],−8.11%
same,Avg (Bax),[3],3.48%
same,Avg (Bcl 2),[3],−7.8%
same,Avg (Bcl2 S70),[3],−6.78%
same,Avg (Bcl 2 T56),[3],−2.12%
same,Avg (Bim),[3],5.07%
same,Avg (CREB S133),[3],−21.37%
same,Avg (Caspase 3 CL D175),[3],10.47%
same,Avg (Caspase 7 Cl D198),[3],−4.92%
same,Avg (Chk1),[3],6.56%
same,Avg (Chk1 S345),[3],32.96%
same,Avg (Cyclin D1),[3],−31.92%
same,Avg (ERK 1 2),[3],−6.88%
same,Avg (ERK 1 2 T202 Y204),[3],199.59%
same,Avg (MAK1 S360),[3],−5.25%
same,Avg (Mcl1),[3],−1.79%
same,Avg (Raptor S792),[3],2.18%
same,Avg (Raptor),[3],22.43%
same,Avg (Rictor),[3],−11.25%
same,Avg (Stat1),[3],7.4%
same,Avg (Stat3),[3],−9.44%
same,Avg (bad S112),[3],−10.08%
same,Avg (c Fos),[3],−16.12%
same,Avg (c Myc),[3],−7.84%
same,Avg (mTOR S2448),[3],11.84%
same,Avg (mTOR S2481),[3],3.65%
same,Avg (mTOR),[3],−9.8%
same,Avg (p70 S6 Kinase),[3],−3.25%
same,Avg (p90 RSK S380),[3],−39.09%
same,Avg(S6 Ribo Prot S235 236),[3],−67.9%
same,Avg(S6 Ribo Prot S240 244),[3],−75.59%
same,Avg(Tuberin TSC2 Y1571),[3],5.71%
same,Avg(p70 S6 Kinase S371 S394),[3],−14.4%
same,Avg(p70 S6 Kinase T389 T412),[3],−40.99%
